Data on 14 compounds can be found in patent US8039430B2 (University of Wollongong, priority 2005, dated 2011).

Converted amounts (≈) assume the structure as drawn. Where a name gives a salt, the structure may show the parent alone. Read-outs that look alike come from different tables or passages of the source. Square brackets hold non-standard residues; d marks the D form. Peptide text beside a SMILES is read from it. * marks the point of attachment. Fmoc = O=C(OCC1c2ccccc2-c2ccccc21)*; dAllylGly = C=CC[C@@H](N)C(=O)O; AllylGly = C=CC[C@H](N)C(=O)O

Test [1] deals with Staphylococcus aureus strain ATCC 6538P. The experiment in a line: Antibacterial screening (MIC) of compounds of Example 2, S. aureus, Mueller-Hinton broth. The class given is cell-based. The procedure: Antibacterial Screening Methodology for Compounds of Example 2
• All assays used the Staphylococcus aureus strain ATCC 6538P. • Assays described in Chapter 5 additionally used the vancomycin-resistant enterococci and vancomycin-sensitive enterococci strains Ef243, Ef449, Ef820 and Ef487. Culture Media • Mueller-Hinton Broth Medium (MHB): MHB (Oxoid CM405) was prepared with final concentrations of […] MgCl2 and 2 μg/mL CaCl2. Culture medium was pre-warmed for approximately 2-3 h at 37° C. before use. • Mueller-Hinton Agar Medium (MHA): MMB containing 1.5% Agar (Merck Agar 1.01614). Maintenance of Bacteria • From a thawed cryovial, the bacteria was streaked onto MHA and the plate incubated overnight at 37° C. • From this plate, 10 cryovials were prepared by looping several colonies into 0.5 mL of 20% glycerol solution. The cryovials were immediately stored at −140° C. Preparation of Seed Cultures • A cryovial was removed from −140° C. storage and thawed at room temperature. • An MHA plate was streaked with a loopful of bacterial suspension and incubated overnight at 37° C. to create a parent plate (P1). • A daughter plate (D1) was streaked from the parent plate and incubated overnight at 37° C. […] The second parent plate (P2) was used to generate two additional daughter plates using the procedure outlined above before being discarded. • Cryovials were used twice to prepare parent plates (P1 and P2) before being discarded. […] A vancomycin control set (triplicate) and a compound negative control set (triplicate) were also included on each plate (FIG. 1). • The inoculated culture medium was incubated at 37° C. for 30 min, with shaking at 130 rpm. • Using a multichannel pipette, the contents of the first row were mixed before 50 μL was transferred to the second row. The pipette tips were changed and the process repeated by 50 μL of the mixed broth solutions in the second row being transferred to the third row. This process was repeated until the last row contained either the diluted test compound or a control (vancomycin or compound-negative). […] Antibacterial Testing of Compounds of Example 2 Introduction
The specific testing procedures and protocols are outlined in the section “Antibacterial Screening Methodology for the Compounds of Example 2”.
The antibacterial activity results are measured by minimum inhibitory concentration (MIC), which is the lowest concentration of compound necessary to prevent bacterial growth.

Test [2] deals with #987 E. faecium van B ST39. The experiment in a line: Antibacterial assay (MIC), VRE strain #987, Enterococossel Broth, Example 1. The conditions noted are these: Example 1 compounds, VRE #987 E. faecium van B, 24 hrs, 37° C.; for MIC: Enterococcus faecium, read-out: 987 (minimum inhibitory concentration). The test is classed as cell-based, Enterococcus faecium. The procedure:
(§1) Antibacterial Assay Method for Staphylococcus aureus (ATCC 6538P) and Enterococcus faecium
(§2) #820 E. faecium van A ST17 #987 E. faecium van B ST39
(§3) Compounds are accurately weighed out (between approx. 1-2 mg) and dissolved in either 10% methanol/water (v/v) or 100% DMSO to a final stock concentration of 5 mg/ml.
(§4) Compounds are then diluted 1/10 in H2O to a test conc of 500 ug/ml ready for immediate use, or storage at −20° C.
(§5) Grow up an o/n starter culture of Staphylococcus aureus and each VRE strain by diluting previous culture (stored at 4° C.) 1/1000 into −50 mls Luria Broth (LB) for S. aureus or Enterococossel Broth (EB) for the VRE strains.
(§6) Incubate o/n at 37° C.+shaking. • A glycerol stock (0.6 mls bacterial culture, 0.3 mls glycerol) of each strain is kept at −80° C. if needed. Assay Set Up:
(§7) In a 96well round bottom plate add 50 ul LB/well for the S. aureus plate and add 50 ul EB/well for the VRE plates.
(§8) Add 50 ul of compound dilution (500 ug/ml test conc) to each of three top row wells (ie: tested in triplicate) and dilute 1 in 2 from the top row to the bottom row.
(§9) After the compound dilution, add to each well 50 ul of a 1/1000 dilution of the appropriate overnight bacterial culture, either S. aureus or the different VRE strains.
(§10) Plates are incubated at 37° C. on a slowly rotating plate incubator. • test concentrations are (in ug/ml) 125, 62.5, 31.25, 15.6, 7.8, 3.9, 1.9, 0.98 • final DMSO concentration in the first row of wells of the assay is 2.5% • Vancomycin is included in the assay (in triplicate) at a starting test concentration of 5 ug/ml for S. aureus and 125 ug/ml for the VRE strains Reading Results of Assay:
(§11) After incubation for 24 hrs the plates are removed and read. Inhibition of bacterial growth is indicated by lack of bacterial pellet or a clear well. In the VRE plates bacterial growth is indicated by black coloured media (EB) as well as a bacterial pellet.
(§12) Untreated control wells are included in the assay to check they all contain bacterial pellets. Uninoculated untreated control wells are included to check they all contain clear medium.
(§13) The plates are analysed for MIC and the results tabulated.

The test system of test [3] is Staphylococcus aureus (ATCC 6538P). The experiment in a line: Antibacterial assay (MIC), Staphylococcus aureus ATCC 6538P, Luria Broth, Example 1. The class given is cell-based. The conditions noted are these: Example 1 compounds, S. aureus ATCC 6538P, 24 hrs, 37° C., range if at least two of three values fell within it; for MIC: Staphylococcus aureus, ATCC6538P, read-out: Sa (minimum inhibitory concentration). The procedure: as §1
Staphylococcus aureus (ATCC 6538P)
as §3, §4, §5, §6, §7, §8, §9, §10, §11, §12, §13

Test [4] relates to #449 E. faecium van B ST17. Description: Antibacterial assay (MIC), VRE strain #449, Enterococossel Broth, Example 1. The class given is cell-based, Enterococcus faecium. The conditions noted are these: Example 1 compounds, VRE #449 E. faecium van B, 24 hrs, 37° C.; for MIC: Enterococcus faecium, read-out: 449 (minimum inhibitory concentration). The procedure:
as §1
(§14) VRE strains: #243 E. faecium van B ST17 #449 E. faecium van B ST17
as §3, §4, §5, §6, §7, §8, §9, §10, §11, §12, §13

For test [5], the system named is #820 E. faecium van A ST17. The experiment in a line: Antibacterial assay (MIC), VRE strain #820, Enterococossel Broth, Example 1. The test is classed as cell-based, Enterococcus faecium. Particulars: Example 1 compounds, VRE #820 E. faecium van A, 24 hrs, 37° C.; for MIC: Enterococcus faecium, read-out: 820 (minimum inhibitory concentration). The procedure:
as §1, §2, §3, §4, §5, §6, §7, §8, §9, §10, §11, §12, §13

Test [6] relates to #243 E. faecium van B ST17. Description: Antibacterial assay (MIC), VRE strain #243, Enterococossel Broth, Example 1. The class given is cell-based, Enterococcus faecium. Particulars: Example 1 compounds, VRE #243 E. faecium van B, 24 hrs, 37° C.; for MIC: Enterococcus faecium, read-out: 243 (minimum inhibitory concentration). The procedure: as §1, §14, §3, §4, §5, §6, §7, §8, §9, §10, §11, §12, §13

Setting [7] is: Staphylococcus aureus, ATCC6538P, 18 h, read-out: Antibacterial activity (MIC μg/mL).
Where [8] appears, read: Staphylococcus aureus, ATCC6538P, Example 2 compounds, S. aureus, 18 h, 37° C., read-out: Antibacterial activity (MIC μg/mL).

On to `COC(=O)[C@@H]1CC=CCOc2ccc(cc2)C[C@H](NC(C)=O)C(=O)N[C@H](CCCCN)C(=O)N1` [Compound 12, (7S,10R,13S,4E/Z)-13-Acetamido-10-(4-aminobutyl)-8,11-diaza-7-methoxycarbonyl-2-oxa-9,12-dioxo-1(1,4)phenylenacyclotetradecaphane-4-ene hydrochloride], for which, in test [1] (setting [7]), the MIC worked out at 62.5 µg/mL.

With `N=C(N)NCCC[C@@H](NC(=O)CCCOc1ccc2ccccc2c1-c1c(OCCCC(=O)N[C@H](CCCNC(=N)N)C(=O)OCc2ccccn2)ccc2ccccc12)C(=O)OCc1ccccn1` [Compound 37], the MIC in test [2] was more than 62.6 µg/mL; in test [3], 0.99 to 15.6 µg/mL (≈ 1.04 to 16.4 µM); in test [4], more than 62.6 µg/mL; in test [5], more than 62.6 µg/mL; in test [6] it was more than 62.6 µg/mL.

`C=CCOc1ccc2ccccc2c1-c1c(OCC(=O)N[C@H](CCCN)C(=O)Nc2cccc(C(=O)NOCc3ccccc3)c2)ccc2ccccc12` [Compound 43]: the MIC in test [2] is more than 62.6 µg/mL; in test [3] it was 0.99 to 15.6 µg/mL (≈ 1.37 to 21.6 µM); in test [4], more than 62.6 µg/mL; in test [5] it was 15.7 to 62.5 µg/mL (≈ 21.7 to 86.5 µM); in test [6] it was more than 62.6 µg/mL.

On to `COC(=O)[C@H]1CC=CCOc2ccc(cc2)C[C@H](NC(C)=O)C(=O)N[C@@H](CCCN=C(N)NS(=O)(=O)c2c(C)c(C)c3c(c2C)CCC(C)(C)O3)C(=O)N1` [Compound 47], for which the “987 (minimum inhibitory concentration)” value in test [2] was “+ (MIC of the compound in the range of greater than or equal to 62.6 (μg/ml))”. Also, the “Sa (minimum inhibitory concentration)” value in test [3] was “+++ (MIC of the compound in the range of greater than or equal to 0.99 (μg/ml) and less than or equal to 15.6 (μg/ml))”. The “449 (minimum inhibitory concentration)” value in test [4] is “+ (MIC of the compound in the range of greater than or equal to 62.6 (μg/ml))”. The “820 (minimum inhibitory concentration)” value in test [5] was “+ (MIC of the compound in the range of greater than or equal to 62.6 (μg/ml))”. In test [6], the “243 (minimum inhibitory concentration)” value is “+ (MIC of the compound in the range of greater than or equal to 62.6 (μg/ml))”.

Consider `COC(=O)[C@@H]1CC=CCOc2ccc(cc2)C[C@@H](NC(C)=O)C(=O)N[C@@H](CCCNC(=N)N)C(=O)N1.Cl` [Compound 56, (7S,10S,13R,4E/Z)-13-Acetamido-8,11-diaza-10-(3-[amino{imino}methylamino]propyl)-7-methoxycarbonyl-2-oxa-9,12-dioxo-1(1,4)phenylenacyclotetradecaphane-4-ene], for which, in test [1] (setting [8]), the MIC was found to be 125 µg/mL.

As for `COC(=O)[C@@H]1Cc2ccc(cc2)OCC=CCOc2ccc(cc2)C[C@H](NC(C)=O)C(=O)N[C@H](CCCCN)C(=O)N1.Cl` [Compound 65, (10S,13R,16S,4E/Z)-16-Acetamido-13-(4-aminobutyl)-11,14-diaza-10-methoxycarbonyl-2,7-dioxa-12,15-dioxo-1(1,4),8(4,1)-diphenylenecycloheptadecaphane-4-ene], in test [1] (setting [8]), the MIC was determined as 15.6 µg/mL.

Turning to `C=CC[C@H](NC(=O)[C@@H](CCCNC(=N)N)NC(=O)OCC1c2ccccc2-c2ccccc21)C(=O)OC.Cl` [Compound 69, Methyl(2S,5R)-2-allyl-3-aza-5-(9H-9-fluorenylmethyloxycarboxamido)-8-(guanidino)-4-oxooctanoate hydrochloride] (Fmoc-[dR]-[AllylGly]-OMe), the MIC in test [1] (setting [8]) was 125 µg/mL.

Regarding `C=CC[C@H](NC(=O)[C@H](CCCNC(=N)N)NC(=O)OCC1c2ccccc2-c2ccccc21)C(=O)OC.Cl` [Compound 70, Methyl(2S,5S)-2-allyl-3-aza-5-(9H-9-fluorenylmethyloxycarboxamido)-8-(guanidino)-4-oxooctanoate hydrochloride] (Fmoc-Arg-[AllylGly]-OMe), in test [1] (setting [8]), the MIC amounted to 125 µg/mL.

On to `C=CC[C@@H](NC(=O)[C@@H](CCCNC(=N)N)NC(=O)OCC1c2ccccc2-c2ccccc21)C(=O)OC.Cl` [Compound 71, Methyl(2R,5R)-2-allyl-3-aza-5-(9H-9-fluorenylmethyloxycarboxamido)-8-(guanidino)-4-oxooctanoate hydrochloride] (Fmoc-[dR]-[dAllylGly]-OMe), for which, in test [1] (setting [8]), the MIC was determined as 125 µg/mL.

Regarding `C=CC[C@@H](NC(=O)[C@H](CCCNC(=N)N)NC(=O)OCC1c2ccccc2-c2ccccc21)C(=O)OC.Cl` [Compound 72, Methyl(2R,5S)-2-allyl-3-aza-5-(9H-9-fluorenylmethyloxycarboxamido)-8-(guanidino)-4-oxooctanoate hydrochloride] (Fmoc-Arg-[dAllylGly]-OMe), in test [1] (setting [8]), the MIC came out at 125 µg/mL.

`C=CCOc1ccc(C[C@H](NC(=O)[C@@H](CCCCN)NC(=O)OCC2c3ccccc3-c3ccccc32)C(=O)OC)cc1.Cl` [Compound 73, Methyl(2S,5R)-2-(4-allyloxybenzyl)-9-amino-3-aza-5-(9H-9-fluorenylmethyloxycarboxamido)-4-oxononanoate hydrochloride]: the MIC in test [1] (setting [8]) is 31.3 µg/mL.

Consider `C=CCOc1ccc(C[C@H](NC(=O)[C@H](CCCCN)NC(=O)OCC2c3ccccc3-c3ccccc32)C(=O)OC)cc1.Cl` [Compound 74, Methyl(2S,5S)-2-(4-allyloxybenzyl)-9-amino-3-aza-5-(9H-9-fluorenylmethyloxycarboxamido)-4-oxononanoate hydrochloride], for which, in test [1] (setting [8]), the MIC was 15.6 µg/mL.

Take `C=CCOc1ccc(C[C@H](NC(=O)[C@@H](CCCNC(=N)N)NC(=O)OCC2c3ccccc3-c3ccccc32)C(=O)OC)cc1.Cl` [Compound 75]: the MIC in test [1] (Example 2 compounds, S. aureus, best activity named in the text) was determined as 7.8 µg/mL; in test [1] (setting [8]), 7.8 µg/mL.

For `C=CCOc1ccc(C[C@H](NC(C)=O)C(=O)N[C@H](CCCCN)C(=O)N[C@@H](CC=C)C(=O)OC)cc1` [Compound 77, hydrochloride], in test [1] (setting [7]), the MIC worked out at 125 µg/mL.
